Test results from patent US20240032546A1, “BRASSICA SEED MEAL (BSM)-BASED BIO-HERBICIDE FOR INHIBITING WEED GERMINATION, AND PREPARATION METHOD AND USE THEREOF” (Institute of Soil Science, CAS, priority 2022, published 2024).

Test system: field weeds (Portulaca oleracea L., Bothriochloa ischaemum L., Eleusine indica L., Setaria viridis L., and Amaranthus spinosus L.)
Assay: Field soil test of weed growth and germination inhibition
Assay type: in vivo
Details: after 1 week, dazomet 40 g/m2, BSM-based bio-herbicide 0.8 wt %
Protocol: Dazomet was added to the field soil at 40 g/m 2 of soil (as a treatment 1). The BSM-based bio-herbicide (Example 1) was added to another field soil at 0.8 wt % of the BSM per mu of soil (1 mu=300,000 jin) (as a treatment 2). The same area of field soil without adding any exogenous substances was used as a control. After 1 week, the weed growth of the two treatments and the control (field weeds included Portulaca oleracea L., Bothriochloa ischaemum L., Eleusine indica L., Setaria viridis L., and Amaranthus spinosus L.) was counted, and the germination inhibition rate of weed seeds was calculated.

CN1CSC(=S)N(C)C1 [dazomet, Dazomet]
inhibition rate to the field weeds compared with the control: 86.84%
weight of field weeds (control 1.550 kg/m^2): 0.204 kg/m^2
